Structures can show the parent of a compound that is named as a salt.
target: AKT-1 (Homo sapiens, UniProt P31749); test: AKT kinase inhibition assay: Dowex technique (AKT1, Aktide substrate); format: biochemical; conditions: AKT1 5 nM, Aktide 30 μM, ATP 132 μM, 60 min rt
Excerpt: Method for AKT Kinase Inhibition Assay: Dowex Technique
General Principle for Kinase Inhibition Assays
Specific peptide or protein substrates are trans-phosphorylated by their specific serine -threonine or tyrosine kinase, in the presence of ATP traced with ^33Pγ-ATP, and in the presence of their own optimal buffer and cofactors.
At the end of the phosphorylation reaction, more than 98% cold ATP and radioactive ATP is captured by an excess of the ion exchange dowex resin; the resin then settles down to the bottom of the reaction plate by gravity.
Supernatant, containing the phosphorylated substrate, is subsequently withdrawn and transferred into a counting plate, then evaluated by β-counting.
• TRIS 50 mM, pH 7.5 • MgCl2 10 mM • DTT 1 mM • NaVO3 […] • BSA 0.2 mg/ml • Assay conditions (final concentrations) for AKT1 • Enzyme concentration (AKT1)=5 nM • Substrate concentration (Aktide, 14 residues peptide, from PRIMM)=30 μM • ATP=132 μM • ^33P-γ-ATP=0.88 nM Robotized Dowex Assay
The “test” mixture consisted of: • 1) 3× Enzyme mix (done in Kinase Buffer 3×), 5 μl/well • 2) 3× substrate and ATP mix (done in DDH2O), together with ^33P-γ-ATP, 5 μl/well • 3) 3× test compounds (diluted into DDH2O-3% DMSO)-5 μl/well Dilution of Compounds
Test compounds are received as 100% DMSO solution at the indicated concentrations: • i—for % inhibition studies, individual dilution plates at 1 mM, 100 μM and 10 μM are prepared in 100% DMSO, then diluted at a 3× concentration (30, 3 and 0.3 μM) in DDH2O, 3% DMSO. A Multimek 96 (Beckman) is used for dilutions and compound pipetting into the test plates • ii—for IC50 determination, compounds are received as 1 mM, 100% DMSO solutions, plated into the first column of a microtiter plate (A1 to G1), 100 μl.
Well H1 is left empty for the internal standard inhibitor, staurosporine.
A Biomek 2000 (Beckman) is used for serial 1:3 dilutions in water, 3% DMSO, from column A1 to A10 and for all the seven compounds in the plate. In a standard experiment, the highest concentration of all compounds is 30 μM, then diluted in the final test mixture down to 10 μM.
384-well plates, V bottom (test plates) are prepared with 5 μl of the compound dilution (3×) and then placed onto a PlateTrak 12 robotized station (Perkin Elmer; the robot has one 384-tips pipetting head for starting the assay plus one 96-tips head for dispensing the resin) together with one reservoir for the Enzyme mix (3×) and one for the ATP mix (3×).
At the start of the run, the robot aspirates 5 μl of ATP mix, makes an air gap inside the tips (3 μl) and aspirates 5 μl of AKT mix. The following dispensation into the plates allows the kinase reaction to start upon 3 cycles of mixing, done by the robot itself.
The robot incubates the plates for 60 minutes at room temperature, and then stops the reaction by pipetting 70 μl of dowex resin suspension into the reaction mix. Three cycles of mixing are done immediately after the addition of the resin.
Another mixing cycle is performed after all the plates are stopped, this time using normal tips: the plates are then allowed to rest for about one hour in order to maximize ATP capture. At this point, 20 μl of the supernatant are transferred into 384-Optiplates (Perkin-Elmer), with 70 μl of Microscint 40 (Perkin-Elmer); after 5 min of orbital shaking the plates are read on a Perkin-Elmer Top Count radioactivity counter.
Data are analysed by an internally customized version of the SW package “Assay Explorer” that provides either % inhibition for primary assays or sigmoidal fittings of the ten-dilutions curves for IC50 determination, for the secondary assays/hit confirmation routines.

Sequence of AKT-1 (P31749 whole entry): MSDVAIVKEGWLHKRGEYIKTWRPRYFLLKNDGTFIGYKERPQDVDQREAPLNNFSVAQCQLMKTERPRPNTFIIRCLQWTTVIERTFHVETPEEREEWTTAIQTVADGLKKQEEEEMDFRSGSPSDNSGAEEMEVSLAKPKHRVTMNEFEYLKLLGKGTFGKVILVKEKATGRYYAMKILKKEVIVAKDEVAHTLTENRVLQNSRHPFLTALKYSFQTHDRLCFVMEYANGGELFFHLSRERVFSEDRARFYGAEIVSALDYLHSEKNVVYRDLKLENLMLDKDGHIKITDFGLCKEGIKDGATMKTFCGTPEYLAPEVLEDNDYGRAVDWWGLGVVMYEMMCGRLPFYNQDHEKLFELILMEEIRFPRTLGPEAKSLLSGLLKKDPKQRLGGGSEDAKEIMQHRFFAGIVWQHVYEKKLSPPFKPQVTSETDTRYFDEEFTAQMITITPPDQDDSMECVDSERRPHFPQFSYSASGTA

IC50 [nM] | Compound
< 500 | NC[C@H](Cc1ccccc1)NC(=O)c1cc2c(n1CC(F)(F)F)-c1ccncc1CC2 [L9, N-[(1S)-2-Amino-1-benzylethyl]-1-(2,2,2-trifluoroethyl)-4,5-dihydro-1H-pyrrolo[2,3-f]isoquinoline-2-carboxamide]
< 500 | NC[C@H](Cc1ccccc1)NC(=O)c1c[nH]c2c1CCc1cnccc1-2 [E15, N-[(1S)-2-Amino-1-benzylethyl]-4,5-dihydro-1H-pyrrolo[2,3-f]isoquinoline-3-carboxamide]
< 500 | NC[C@H](Cc1ccccc1)NC(=O)c1cn(CCO)c2c1CCc1cnccc1-2 [E21, N-[(1S)-2-Amino-1-benzylethyl]-1-(2-hydroxyethyl)-4,5-dihydro-1H-pyrrolo[2,3-f]isoquinoline-3-carboxamide]
< 500 | CC(C)(C)OC(=O)NC[C@H](Cc1ccccc1)NC(=O)c1c[nH]c2c1CCc1cnccc1-2 [E11, tert-Butyl {(2S)-2-[(4,5-dihydro-1H-pyrrolo[2,3-f]isoquinolin-3-ylcarbonyl)amino]-3-phenylpropyl}carbamate]
< 500 | CC(C)(C)OC(=O)NC[C@H](Cc1ccccc1)NC(=O)c1cn(CC(F)(F)F)c2c1CCc1cnccc1-2 [E12, Tert-Butyl [(2S)-3-phenyl-2-({[1-(2,2,2-trifluoroethyl) -4,5-dihydro-1H-pyrrolo[2,3-f]isoquinolin-3-yl]carbonyl}amino)propyl]carbamate]
< 500 | NC[C@H](Cc1ccccc1)NC(=O)c1cc2c([nH]1)-c1ccncc1CC2 [L6, N-[(1S)-2-Amino-1-benzylethyl]-4,5-dihydro-1H-pyrrolo[2,3-f]isoquinoline-2-carboxamide]
< 500 | NC[C@H](Cc1ccccc1)NC(=O)c1cn(CC(F)(F)F)c2c1CCc1cnccc1-2 [E14, N-[(1S)-2-Amino-1-benzylethyl]-1-(2,2,2-trifluoroethyl)-4,5-dihydro-1H-pyrrolo[2,3-f]isoquinoline-3-carboxamide]

target: Cdc7/Dbf4 (Homo sapiens, UniProt O00311); test: Inhibition assay of Cdc7/Dbf4 activity (Dowex resin capture, 33P-ATP, MCM2 substrate); format: biochemical; conditions: MCM2 6 μM, ATP 2 μM, enzyme 2 nM, 60 min rt
Sequence (O00311 whole entry): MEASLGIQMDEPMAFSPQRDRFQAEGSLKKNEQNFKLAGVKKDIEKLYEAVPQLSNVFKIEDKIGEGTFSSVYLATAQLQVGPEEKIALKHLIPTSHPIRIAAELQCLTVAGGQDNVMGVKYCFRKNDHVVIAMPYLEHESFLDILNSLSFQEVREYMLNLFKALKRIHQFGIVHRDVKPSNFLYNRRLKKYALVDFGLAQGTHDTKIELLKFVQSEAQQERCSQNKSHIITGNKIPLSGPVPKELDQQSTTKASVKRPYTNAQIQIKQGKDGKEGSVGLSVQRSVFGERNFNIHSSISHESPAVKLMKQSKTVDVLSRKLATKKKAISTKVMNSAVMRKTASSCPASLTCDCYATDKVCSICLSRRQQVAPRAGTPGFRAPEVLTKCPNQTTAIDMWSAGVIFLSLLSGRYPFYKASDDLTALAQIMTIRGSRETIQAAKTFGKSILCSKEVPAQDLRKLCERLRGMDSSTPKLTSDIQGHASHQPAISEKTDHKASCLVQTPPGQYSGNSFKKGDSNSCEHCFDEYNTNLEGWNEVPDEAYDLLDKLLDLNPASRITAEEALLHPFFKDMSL
Sequence (Q9UBU7 whole entry partner): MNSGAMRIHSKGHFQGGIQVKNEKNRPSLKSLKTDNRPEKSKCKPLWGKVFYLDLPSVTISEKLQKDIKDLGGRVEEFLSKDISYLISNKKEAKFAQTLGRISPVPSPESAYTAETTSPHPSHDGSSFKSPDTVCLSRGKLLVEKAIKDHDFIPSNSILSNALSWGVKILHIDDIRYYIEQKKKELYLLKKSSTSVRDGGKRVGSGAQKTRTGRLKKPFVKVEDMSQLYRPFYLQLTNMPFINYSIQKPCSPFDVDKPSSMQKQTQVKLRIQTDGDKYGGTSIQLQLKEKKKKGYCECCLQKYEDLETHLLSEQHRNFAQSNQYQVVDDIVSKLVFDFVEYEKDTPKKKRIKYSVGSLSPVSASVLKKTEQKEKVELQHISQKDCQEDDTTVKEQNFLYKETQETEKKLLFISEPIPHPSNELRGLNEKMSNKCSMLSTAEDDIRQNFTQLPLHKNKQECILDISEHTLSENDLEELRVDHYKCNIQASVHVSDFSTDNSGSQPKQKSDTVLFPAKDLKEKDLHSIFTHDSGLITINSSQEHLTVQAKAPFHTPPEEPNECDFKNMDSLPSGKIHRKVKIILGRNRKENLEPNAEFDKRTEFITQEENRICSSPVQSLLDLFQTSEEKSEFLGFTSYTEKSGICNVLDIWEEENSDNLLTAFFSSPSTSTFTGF
Protocol: Inhibition Assay of Cdc7 Activity
The inhibiting activity of putative Cdc7 inhibitors and the potency of selected compounds is determined through a method of assay based on the use of Dowex resin capture technology.
The assay consists of the transfer of radioactivity labeled phosphate moiety by the kinase to an acceptor substrate. The resulting 33P-labeled product is separated from unreacted tracer, transferred into a scintillation cocktail and light emitted is measured in a scintillation counter.
The inhibition assay of Cdc7/Dbf4 activity is performed according to the following protocol.
The MCM2 substrate is trans-phosphorylated by the Cdc7/Dbf4 complex in the presence of ATP traced with γ^33-ATP. The reaction is stopped by addition of Dowex resin in the presence of formic acid. Dowex resin particles capture unreacted γ^33-ATP and drag it to the bottom of the well while ^33P phosphorylated MCM2 substrate remains in solution. The supernatant is collected, transferred into Optiplate plates and the extent of substrate phosphorylation is evaluated by β counting.
The inhibition assay of Cdc7/Dbf4 activity was performed in 96 wells plate according to the following protocol.
To each well of the plate were added: • 10 μl test compound (10 increasing concentrations in the nM to uM range to generate a dose-response curve). The solvent for test compounds contained 3% DMSO. (final concentration 1%) • 10 μl substrate MCM2 (6 μM final concentration), a mixture of cold ATP (2 μM final concentration) and radioactive ATP (1/5000 molar ratio with cold ATP). • 10 μl enzyme (Cdc7/Dbf4, 2 nM final concentration) that started the reaction. The buffer of the reaction consisted in 50 mM HEPES pH 7.9 containing 15 mM MgCl2, 2 mM DTT, 3 uM NaVO3, 2 mM glycerophosphate and 0.2 mg/ml BSA. • After incubation for 60 minutes at room temperature, the reaction was stopped by adding to each well 150 μl of Dowex resin in the presence of 150 mM formic acid. After other 60 min incubation, 50 μl of suspension were withdrawn and transferred into 96-well OPTIPLATEs containing 150 μl of MicroScint 40 (Packard); after 5-10 minutes shaking the plates were read for 1 min in a Packard TOP-Count radioactivity reader.
IC50 determination: inhibitors were tested at different concentrations ranging from 0.0005 to 10 μIM. Experimental data were analyzed by the computer program Assay Explorer using the four parameter logistic equation: y=bottom+(top−bottom)/(1+10^((log IC50−x)*slope)) where x is the logarithm of the inhibitor concentration, y is the response; y starts at bottom and goes to top with a sigmoid shape.

IC50 [nM] | Compound
< 100 | O=Cc1c(-c2ccncc2)[nH]c2c1ccc1cnccc12 [H1, 2-Pyridin-4-yl-1H-pyrrolo[2,3-f]isoquinoline-3-carbaldehyde]
< 100 | NC(=O)c1c(-c2ccc(Br)cc2)[nH]c2c1ccc1cnccc12 [G6, 2-(4-Bromo-phenyl)-1H-pyrrolo[2,3-f]isoquinoline-3-carboxylic acid amide]
< 100 | Cn1c(-c2ccccc2)c(C(N)=O)c2ccc3cnc(N)nc3c21 [N10, 8-Amino-1-methyl-2-phenyl-1H-1,7,9-triaza-cyclopenta[a]naphthalene-3-carboxylic acid amide]
< 100 | Cn1c(Cl)c(C(N)=O)c2ccc3[nH]ncc3c21 [C1, 2-Chloro-1-methyl-1,6-dihydro-1,6,7-triaza-as-indacene-3-carboxylic acid amide]
< 1000 | NC(=O)c1c[nH]c2c1CCc1cnccc1-2 [E10, 4,5-Dihydro-1H-pyrrolo[2,3-f]isoquinoline-3-carboxylic acid amide]
< 100 | Cn1cc(C(N)=O)c2ccc3n[nH]cc3c21 [B3, 1-Methyl-1,7-dihydro-1,6,7-triaza-as-indacene-3-carboxylic acid amide]
< 100 | NC(=O)c1c(-c2ccccc2)[nH]c2c1ccc1cnc(N)nc12 [N9, 8-Amino-2-phenyl-1H-1,7,9-triaza-cyclopenta[a]naphthalene-3-carboxylic acid amide]
< 1000 | Cn1c2c(c(C(N)=O)c1-c1ccccc1)CCc1cnc(N)nc1-2 [N4, 8-Amino-1-methyl-2-phenyl-4,5-dihydro-1H-1,7,9-triaza-cyclopenta[a]naphthalene-3-carboxylic acid amide]
< 100 | Cc1ccccc1-c1c(C(N)=O)c2c(n1C)-c1ccncc1CC2 [F5, 1-Methyl-2-o-tolyl-4,5-dihydro-1H-pyrrolo[2,3-f]isoquinoline-3-carboxylic acid amide]
< 100 | NC(=O)c1c(-c2ccccc2)[nH]c2c1ccc1cnccc12 [G3, 2-Phenyl-1H-pyrrolo[2,3-f]isoquinoline-3-carboxylic acid amide]
< 1000 | O=C(O)c1c[nH]c2c1CCc1cnccc1-2 [E6, 4,5-Dihydro-1H-pyrrolo[2,3-f]isoquinoline-3-carboxylic acid]
< 100 | O=C(O)c1c(-c2ccc(Br)cc2)[nH]c2c1ccc1cnccc12 [G5, 2-(4-Bromo-phenyl)-1H-pyrrolo[2,3-f]isoquinoline-3-carboxylic acid]
< 100 | Cn1cc(C(=O)O)c2ccc3[nH]ncc3c21 [B2, 1-Methyl-1,6-dihydro-1,6,7-triaza-as-indacene-3-carboxylic acid]
< 1000 | CCOC(=O)c1c(Br)[nH]c2c1CCc1cnccc1-2 [F1, 2-Bromo-4,5-dihydro-1H-pyrrolo[2,3-f]isoquinoline-3-carboxylic acid ethyl ester hydrobromide]
< 1000 | O=Cc1c(-c2ccc(N3CCOCC3)cc2)[nH]c2c1ccc1cnccc12 [G7, 2-(4-Morpholin-4-yl-phenyl)-1H-pyrrolo[2,3-f]isoquinoline-3-carbaldehyde]
< 1000 | O=C(O)c1cn(CC(F)(F)F)c2c1CCc1cnccc1-2 [E7, 1-(2,2,2-Trifluoroethyl)-4,5-dihydro-1H-pyrrolo[2,3-f]isoquinoline-3-carboxylic acid]
< 100 | Cn1c(-c2ccccc2)c(C(N)=O)c2ccc3n[nH]cc3c21 [C2, 1-Methyl-2-phenyl-1,7-dihydro-1,6,7-triaza-as-indacene-3-carboxylic acid amide]
< 1000 | O=C(O)c1cc2c([nH]1)-c1ccncc1CC2 [L2, 4,5-Dihydro-1H-pyrrolo[2,3-f]isoquinoline-2-carboxylic acid]
< 100 | NC(=O)c1c(-c2ccncc2)[nH]c2c1ccc1cnccc12 [H3, 2-Pyridin-4-yl-1H-pyrrolo[2,3-f]isoquinoline-3-carboxylic acid amide]

— patent publication US8207180B2, “Tricyclic indoles and (4,5-dihydro) indoles” (Nerviano Medical Sciences S.R.L., priority 2006, dated 2012)
